Results as given in paper PMC3022755, “HP1 Recruits Activity-Dependent Neuroprotective Protein to H3K9me3 Marked Pericentromeric Heterochromatin for Silencing of Major Satellite Repeats” (PLoS ONE, 2011).
Where no end group is shown, it is not given here. [ ]: non-standard residue; d: D form. Lys(Me3) = C[N+](C)(C)CCCC[C@H](N)C(=O)O

Key:
recombinant HP1β = test: Fluorescence polarization binding assay; design: species or system human; details: fluorescein-labeled peptide, averaged from three independent titration reactions
FLAG-tagged ADNP = test: H3 peptide pulldown with TNT-expressed FLAG-tagged ADNP; type: binding; details: TNT reticulocyte extract, western blot
ADNP = test: H3 peptide pulldown of HeLa S3 nuclear extract, western blot; type: binding; details: immobilized H3 (aa 1-21) peptides on magnetic beads, monoclonal anti-ADNP
HP1 isoform proteins = type: binding, human
[1] = system: three isoforms of HP1, HP1α HP1β and HP1γ, and CDYL1; test: H3 peptide pulldown of HeLa S3 nuclear extract, MS/MS identification; type: binding; details: SDS-PAGE
H3K9me3 peptide [2] = test: H3K9me3 peptide pulldown with mutant HP1β; type: binding; details: H3K9me3 peptides on magnetic beads; with ADNP-FLAG; western blot
[3] = system: HP1 dimerization and H3K9me3; details: ref [27]; cited from earlier work
Description: (§1) We analyzed this recombinant, mutant HP1βprotein in H3K9me3 peptide pulldown experiments with wild type FLAG-tagged ADNP expressed in TNT reticulocyte extract (Figure 5D). W170A mutation had no effect on HP1β bi ...

PxVxL = details: ref [27]; cited from earlier work
Description: as §1

[4] = system: wild type FLAG-tagged ADNP; test: H3K9me3 peptide pulldown, recruitment of ADNP by mutant HP1β; type: binding; details: compared to wild type HP1β; wild type FLAG-tagged ADNP in TNT reticulocyte extract; western blot
[5] = system: pericentromeric heterochromatin in NIH3T3 cells; test: Localization of CFP-ADNP constructs in living NIH3T3 cells; type: cell-based, mouse; details: transient co-expression with RFP-HP1β; unfixed, living cells of low expression level; confocal
[6] = system: pericentromeric heterochromatin in NIH3T3 cells; test: Localization of YFP-ADNP fusion proteins in living NIH3T3 cells; type: cell-based, mouse; details: inducible stable NIH3T3 lines, unfixed; for localization to pericentromeric heterochromatin: Hoechst 33342
H3K9me3 peptide [7] = type: binding

## EDDSYEAR[Lys(Me3)]SFLTKY [ADNPK767me3 (FP peptide), ADNPK767me3 peptide used for FP measurements]
Recombinant HP1β
  HP1 binding: does not bind
Recombinant HP1β; listed as methylated peptide spanning the ADNP ARKS region
  HP1 binding: did not detect binding

## H3K9me3: H3 (aa 1-21) peptide trimethylated at lysine 9, used for pulldown
FLAG-tagged ADNP; co-incubated with recombinant HP1α
  binding of ADNP to peptide: bound specifically to the H3K9me3 peptide
FLAG-tagged ADNP; co-incubated with recombinant HP1β
  binding of ADNP to peptide: bound specifically to the H3K9me3 peptide
FLAG-tagged ADNP; co-incubated with recombinant HP1γ
  binding of ADNP to peptide: bound specifically to the H3K9me3 peptide
FLAG-tagged ADNP; without HP1
  binding of ADNP to peptide: did not bind to any of the differentially loaded beads
ADNP
  enrichment of ADNP on peptide matrix: specific enrichment of ADNP exclusively on the H3K9me3 matrix
HP1 isoform proteins
  recruitment of HP1 isoform proteins to peptide: concomitant with recruitment of the different HP1 isoform proteins to the H3K9me3 matrix
[1]
  proteins specifically interacting with H3 tail depending on K9me3: several known H3K9me3 interaction partners like the three isoforms of HP1

## HP1β W170A: recombinant His6-HP1β with tryptophan 170 mutated to alanine
H3K9me3 peptide [2]
  HP1β binding to H3K9me3 peptide: no effect on HP1β binding to the H3K9me3 peptide
[3]
  HP1 dimerization and H3K9me3 binding: without affecting HP1 dimerization and H3K9me3 binding
PxVxL
  HP1-PxVxL interaction: abolish HP1-PxVxL interaction
[4]
  recruitment of ADNP to H3K9me3 in presence of mutant HP1β: severely impaired

B1: CFP-ADNP(701-846): CFP fusion of the ADNP homeodomain alone, containing NLS (protein, UniProt Q9Z103 701-846, looked up, fragment)
chain: APSRLNQSPGLAPVKRTYEQMEFPLLKKRKLEEDADSPSCFEEKPEEPVVLALDPKGHEDDSYEARKSFLTKYFNKQPYPTRREIEKLAASLWLWKSDIASHFSNKRKKCVRDCEKYKPGVLLGFNMKELNKVKHEMDFDAEWLFE
modifications: CFP fusion
notes: CFP fusion of the ADNP homeodomain alone, containing NLS
[5]
  localization to pericentromeric heterochromatin: co-localized with HP1β

B2: K767R: YFP-ADNP fusion protein with K767R mutation in ARKS motif (protein, UniProt Q9Z103 1-1108, looked up, variant K767R)
Activity-dependent …: MFQLPVNNLGSLRKARKTVKKILSDIGLEYCKEHIEDFKQFEPNDFYLKNTTWEDVGLWDPSLTKNQDYRTKPFCCSACPFSSKFFSAYKSHFRNVHSEDFENRILLNCPYCTFNADKKTLETHIKIFHAPNSSAPSSSLSTFKDKNKNDGLKPKQADNVEQAVYYCKKCTYRDPLYEIVRKHIYREHFQHVAAPYIAKAGEKSLNGAVSLGTNAREECNIHCKRCLFMPKSYEALVQHVIEDHERIGYQVTAMIGHTNVVVPRAKPLMLIAPKPQDKKGMGLPPRISSLASGNVRSLPSQQMVNRLSIPKPNLNSTGVNMMSNVHLQQNNYGVKSVGQSYGVGQSVRLGLGGNAPVSIPQQSQSVKQLLPSGNGRSFGLGAEQRPPAAARYSLQTANTSLPPGQVKSPSVSQSQASRVLGQSSSKPPPAATGPPPSNHCATQKWKICTICNELFPENVYSVHFEKEHKAEKVPAVANYIMKIHNFTSKCLYCNRYLPTDTLLNHMLIHGLSCPYCRSTFNDVEKMAAHMRMVHIDEEMGPKTDSTLSFDLTLQQGSHTNIHLLVTTYNLRDAPAESVAYHAQNNAPVPPKPQPKVQEKADVPVKSSPQAAVPYKKDVGKTLCPLCFSILKGPISDALAHHLRERHQVIQTVHPVEKKLTYKCIHCLGVYTSNMTASTITLHLVHCRGVGKTQNGQDKTNAPSRLNQSPGLAPVKRTYEQMEFPLLKKRKLEEDADSPSCFEEKPEEPVVLALDPKGHEDDSYEARRSFLTKYFNKQPYPTRREIEKLAASLWLWKSDIASHFSNKRKKCVRDCEKYKPGVLLGFNMKELNKVKHEMDFDAEWLFENHDEKDSRVNASKTVDKKHNLGKEDDSFSDSFEHLEEESNGSGSPFDPVFEVEPKIPSDNLEEPVPKVIPEGALESEKLDQKEEEEEEEEEDGSKYETIHLTEEPAKLMHDASDSEVDQDDVVEWKDGASPSESGPGSQQISDFEDNTCEMKPGTWSDESSQSEDARSSKPAAKKKATVQDDTEQLKWKNSSYGKVEGFWSKDQSQWENASENAERLPNPQIEWQNSTIDSEDGEQFDSMTDGVADPMHGSLTGVKLSSQQA
modifications: YFP fusion
notes: YFP-ADNP fusion protein with K767R mutation in ARKS motif
[6]
  localization to pericentromeric heterochromatin: no effect on ADNP localization

B3: K767R mutant ADNP: FLAG-tagged ADNP, lysine 767 within the ARKS motif changed to arginine (protein, UniProt Q9Z103 1-1108, looked up, variant K767R)
Activity-dependent …: MFQLPVNNLGSLRKARKTVKKILSDIGLEYCKEHIEDFKQFEPNDFYLKNTTWEDVGLWDPSLTKNQDYRTKPFCCSACPFSSKFFSAYKSHFRNVHSEDFENRILLNCPYCTFNADKKTLETHIKIFHAPNSSAPSSSLSTFKDKNKNDGLKPKQADNVEQAVYYCKKCTYRDPLYEIVRKHIYREHFQHVAAPYIAKAGEKSLNGAVSLGTNAREECNIHCKRCLFMPKSYEALVQHVIEDHERIGYQVTAMIGHTNVVVPRAKPLMLIAPKPQDKKGMGLPPRISSLASGNVRSLPSQQMVNRLSIPKPNLNSTGVNMMSNVHLQQNNYGVKSVGQSYGVGQSVRLGLGGNAPVSIPQQSQSVKQLLPSGNGRSFGLGAEQRPPAAARYSLQTANTSLPPGQVKSPSVSQSQASRVLGQSSSKPPPAATGPPPSNHCATQKWKICTICNELFPENVYSVHFEKEHKAEKVPAVANYIMKIHNFTSKCLYCNRYLPTDTLLNHMLIHGLSCPYCRSTFNDVEKMAAHMRMVHIDEEMGPKTDSTLSFDLTLQQGSHTNIHLLVTTYNLRDAPAESVAYHAQNNAPVPPKPQPKVQEKADVPVKSSPQAAVPYKKDVGKTLCPLCFSILKGPISDALAHHLRERHQVIQTVHPVEKKLTYKCIHCLGVYTSNMTASTITLHLVHCRGVGKTQNGQDKTNAPSRLNQSPGLAPVKRTYEQMEFPLLKKRKLEEDADSPSCFEEKPEEPVVLALDPKGHEDDSYEARRSFLTKYFNKQPYPTRREIEKLAASLWLWKSDIASHFSNKRKKCVRDCEKYKPGVLLGFNMKELNKVKHEMDFDAEWLFENHDEKDSRVNASKTVDKKHNLGKEDDSFSDSFEHLEEESNGSGSPFDPVFEVEPKIPSDNLEEPVPKVIPEGALESEKLDQKEEEEEEEEEDGSKYETIHLTEEPAKLMHDASDSEVDQDDVVEWKDGASPSESGPGSQQISDFEDNTCEMKPGTWSDESSQSEDARSSKPAAKKKATVQDDTEQLKWKNSSYGKVEGFWSKDQSQWENASENAERLPNPQIEWQNSTIDSEDGEQFDSMTDGVADPMHGSLTGVKLSSQQA
modifications: FLAG tag
notes: FLAG-tagged ADNP, lysine 767 within the ARKS motif changed to arginine
H3K9me3 peptide [7]
  binding of ADNP protein to H3K9me3 peptide: bound to H3K9me3 peptide in a HP1β dependent manner

B4: V821E: YFP-ADNP fusion protein with V821E mutation in PGVLL motif (protein, UniProt Q9Z103 1-1108, looked up, variant V821E)
Activity-dependent …: MFQLPVNNLGSLRKARKTVKKILSDIGLEYCKEHIEDFKQFEPNDFYLKNTTWEDVGLWDPSLTKNQDYRTKPFCCSACPFSSKFFSAYKSHFRNVHSEDFENRILLNCPYCTFNADKKTLETHIKIFHAPNSSAPSSSLSTFKDKNKNDGLKPKQADNVEQAVYYCKKCTYRDPLYEIVRKHIYREHFQHVAAPYIAKAGEKSLNGAVSLGTNAREECNIHCKRCLFMPKSYEALVQHVIEDHERIGYQVTAMIGHTNVVVPRAKPLMLIAPKPQDKKGMGLPPRISSLASGNVRSLPSQQMVNRLSIPKPNLNSTGVNMMSNVHLQQNNYGVKSVGQSYGVGQSVRLGLGGNAPVSIPQQSQSVKQLLPSGNGRSFGLGAEQRPPAAARYSLQTANTSLPPGQVKSPSVSQSQASRVLGQSSSKPPPAATGPPPSNHCATQKWKICTICNELFPENVYSVHFEKEHKAEKVPAVANYIMKIHNFTSKCLYCNRYLPTDTLLNHMLIHGLSCPYCRSTFNDVEKMAAHMRMVHIDEEMGPKTDSTLSFDLTLQQGSHTNIHLLVTTYNLRDAPAESVAYHAQNNAPVPPKPQPKVQEKADVPVKSSPQAAVPYKKDVGKTLCPLCFSILKGPISDALAHHLRERHQVIQTVHPVEKKLTYKCIHCLGVYTSNMTASTITLHLVHCRGVGKTQNGQDKTNAPSRLNQSPGLAPVKRTYEQMEFPLLKKRKLEEDADSPSCFEEKPEEPVVLALDPKGHEDDSYEARKSFLTKYFNKQPYPTRREIEKLAASLWLWKSDIASHFSNKRKKCVRDCEKYKPGELLGFNMKELNKVKHEMDFDAEWLFENHDEKDSRVNASKTVDKKHNLGKEDDSFSDSFEHLEEESNGSGSPFDPVFEVEPKIPSDNLEEPVPKVIPEGALESEKLDQKEEEEEEEEEDGSKYETIHLTEEPAKLMHDASDSEVDQDDVVEWKDGASPSESGPGSQQISDFEDNTCEMKPGTWSDESSQSEDARSSKPAAKKKATVQDDTEQLKWKNSSYGKVEGFWSKDQSQWENASENAERLPNPQIEWQNSTIDSEDGEQFDSMTDGVADPMHGSLTGVKLSSQQA
modifications: YFP fusion
notes: YFP-ADNP fusion protein with V821E mutation in PGVLL motif
[6]
  localization to pericentromeric heterochromatin: strong reduction of the ADNP signal at regions of pericentromeric heterochromatin
[6]; in all cells analyzed
  residual signal at pericentromeric heterochromatin: faint but significant signal
